Among the data in patent publication US11358972B2, “Pentacyclic heterocycles” (Eisai R&D Management Co., Ltd., priority 2019, dated 2022) are minimal effective concentration and change in vivo values, retold here.

SMILES strings stand for the structures.

The subject of assay [1] is Rat primary septal neuron culture. As to the kind of experiment: Measurement of acetylcholine (ACh) release in the rat primary septal neuron culture system. The following applies: 24 h, rat primary septal neurons, with NGF, ACh release measured by HPLC one day after compound addition, read-out: Concentration (μM) showing a 20% or more increase from the amount of ACh in the control group. The format is cell-based. The source says:
Measurement of Acetylcholine (ACh) Release in the Rat Primary Septal Neuron Culture System
(1) Rat Primary Septal Neuron Culture
The septal area was isolated from Sprague-Dawley (SD) rats (Charles River Laboratories Japan, Inc.) at a fetal age of 18 days, and cultured. Specifically, fetuses were removed from pregnant rats under isoflurane anesthesia. The brain was extracted from each fetus, and immersed in ice-cooled L-15 medium (11415-064, Thermo Fisher Scientific). The septal area was dissected from the extracted brain under a stereoscopic microscope. The dissected septal area was treated in 0.25% trypsin (15050-065, Thermo Fisher Scientific) and 0.01% DNase (D5025-150KU, Sigma) at 37° C. for 30 minutes, thereby dispersing the cells. In this case, the enzyme reaction was terminated by adding inactivated horse serum (26050-088, Thermo Fisher Scientific). The enzyme-treated solution was centrifuged at 1000 rpm for 3 minutes, and the supernatant was removed. A medium in an amount of 10 mL was added to the obtained cell mass. The medium used was Dulbecco's Modified Eagle's Medium (044-29765, WAKO) supplemented with N2 supplement (17502-048, Thermo Fisher Scientific), 1 mM sodium pyruvate (11360-070, Thermo Fisher Scientific), and Penicillin-Streptomycin (15140-1221, Thermo Fisher Scientific). The cells of the cell mass to which the medium was added were redispersed by gentle pipetting, and then centrifuged again at 1000 rpm for 3 minutes, and the supernatant was removed. The medium in an amount of 10 mL was added to the obtained cell mass, and the cell dispersion was filtered through a 40-μm nylon mesh (Cell Strainer) to remove the cell mass, thereby obtaining a neuronal cell suspension. The neuronal cell suspension was diluted with the medium, and 10% inactivated bovine serum (26140-079, Thermo Fisher Scientific) and 10% inactivated horse serum were added. Thereafter, 100 μL/well of the suspension was seeded in a 96-well plate (354461, CORNING) pre-coated with poly-D-lysine so that the initial culture density was 1.2×10^5 cells/cm^2. After the seeded cells were cultured under 5% CO2-95% air in a 37° C. incubator for 2 days, the entire medium was replaced with 120 μL of fresh medium, and the cells were subsequently cultured for 5 days.
On the 7th day of culture, compounds were added in the following manner. A solution of the test compound in DMSO was diluted with the medium so that the concentration was 10 times higher than the final concentration. Nerve Growth Factor (450-01, PEPRO TECH, INC.) was prepared at […]. These two solutions were added each in an amount of 15 μL/well, and the mixture was mixed well. The final DMSO concentration was 0.1% or less. Moreover, only DMSO and NGF were added to the control group.
(3) ACh Release Measurement
One day after the compound addition, an amount of ACh release was measured by HPLC in the following manner. A warmed buffer was added at 100 μL/well to the well after the medium was eliminated, and the buffer was immediately removed. Thereafter, a buffer to which 10 μm choline, 10 μm physostigmine, and 6 mM KCl were added was added at 120 μL/well. The buffer was prepared by adding 125 mM NaCl, 25 mM 4-(2-hydroxyethyl)-1-piperazineethanesulfonic acid, 1.2 mM KH2PO4, 1.2 mM MgSO4, 2.2 mM CaCl2 (2H2O), and 10 mM glucose to sterilized water, and the final pH of the solution was set to 7.4. After the 96-well plate to which the buffer was added was incubated under 5% CO2-95% air in a 37° C. incubator for 40 minutes, 80 μL of buffer was collected. An internal standard solution IPHC (5×10^−7 M) was added in an amount of 6 μL to the collected buffer, and the buffer was transferred to a tube for HPLC measurement and subjected to HPLC measurement. […]

Assay [2] relates to Choline Acetyltransferase (ChAT) mRNA. Briefly: Measurement of choline acetyltransferase (ChAT) mRNA expression levels in the rat septal area. The following applies: po, SD male rats, medial septum, 24 hours after administration, read-out: Amount (%) increased from the amount of ChAT mRNA expression levels in the vehicle administration group; for change in vivo at 3 mg/kg: 3 mg/kg orally; for change in vivo at 1 mg/kg: 1 mg/kg orally. The format is in vivo. As to the method: Measurement of Choline Acetyltransferase (ChAT) mRNA Expression Levels in the Rat Septal Area (1) Compound Administration
In this study, Sprague-Dawley male rats (Charles River Laboratories Japan, Inc.) with a body weight of about 250 to 350 g were used. The test compound was dissolved in 0.01 mol/L hydrochloric acid, and orally administered.
At 24 hours after the administration of the compound, the whole brain tissue was collected under pentobarbital anesthesia. The medial septum was isolated from whole brain on ice and frozen with liquid nitrogen, and then stored at −80° C.
(3) Measurement of ChAT mRNA Expression Levels
For RNA purification, RNeasy™ Plus Mini Kit (#74136: QIAGEN) was used in this study. RNA purification was performed by the method described in the kit After RNA purification, the total RNA concentration was measured by using QIAxpert Instrument (QIAGEN). cDNA was synthesized using SuperScript™ VILO™ cDNA Synthesis Kit (#11754: Thermo Fisher Scientific). The synthesis of cDNA was performed by the method described in the kit. The synthesized cDNA was diluted 4 times with RNase free water, and the diluted cDNA solution was used as a sample. Taqman™ Universal PCR Master Mix (#4304437: Thermo Fisher Scientific), Taqman™ Gene Expression Assays, INVENTORIED (#4331182: Thermo Fisher Scientific), RNase free water, and the cDNA solution were mixed in amounts of 10 μL, 1 μL, 4 μL, and 5 μL, respectively, and the resulting mixture was used as a measurement sample solution. Quantitative polymerase chain reaction (qPCR) was conducted using ABI PRISM™ 7900HT (Thermo Fisher Scientific) by a fluorescence probe method. Analysis was performed by SDS 2.4 (Thermo Fisher Scientific). The results were calculated by the percentage of the amount of ChAT mRNA expression levels in the compound administration group increased from the amount of ChAT mRNA expression levels in the vehicle administration group.

`CN1Cc2nc3c(oc4ccccc43)c(=O)n2[C@@H]2CN(CCF)C[C@H]2C1=O` (relative stereo) [Example 17, (−)-(3a,14a-trans)-2-(2-fluoroethyl)-5-methyl-2,3,3a,5,6,14a-hexahydro-1H-benzofuro[3′,2′:4,5]pyrimido[1,2-a]pyrrolo[3,4-f][1,4]diazepine-4,13-dione]: the minimal effective concentration in assay [1] amounted to 0.03 µM. The change in vivo at 3 mg/kg in assay [2] is 44.6%.
For the compound `CN1CCc2c(sc3nc4n(c(=O)c23)C(C)(C)CC(=O)N2CCCC42)C1` (single isomer, unassigned; (+)) [Example 2, (+)-7,7,12-trimethyl-1,2,3,6,7,10,11,12,13,15b-decahydropyrido[4″,3″:4′,5′]thieno[2′,3′:4,5]pyrimido[1,2-a]pyrrolo[2,1-c][1,4]diazepine-5,9-dione], the minimal effective concentration in assay [1] stood at 0.03 µM. In assay [2], the change in vivo at 3 mg/kg worked out at 53.6%.
Regarding `COCCN1CCc2c(sc3nc4n(c(=O)c23)C(C)(C)CC(=O)N2CCCC42)C1` (single isomer, unassigned; (-)) [Example 13, (−)-12-(2-methoxyethyl)-7,7-dimethyl-1,2,3,6,7,10,11,12,13,15b-decahydro-5H,9H-pyrido[4″,3″:4′,5′]thieno[2′3′:4,5]pyrimido[1,2-a]pyrrolo[2,1-c][1,4]diazepine-5,9-dione], in assay [1], the minimal effective concentration stood at 0.03 µM. In assay [2], the change in vivo at 1 mg/kg amounted to 59.7%.
Consider `CN1Cc2nc3c(oc4ccccc43)c(=O)n2[C@@H]2CCC[C@@H]2C1=O` [Example 1, (3aS,14aR)-5-methyl-3,3a,5,6-tetrahydro-1H-benzofuro[3′,2′:4,5]pyrimido[1,2-a]cyclopenta[f][1,4]diazepine-4,13(2H,14aH)-dione], for which the minimal effective concentration in assay [1] was found to be 0.03 µM. In addition, the change in vivo at 10 mg/kg in assay [2] (10 mg/kg orally) turned out to be 76%.
As for `CN1Cc2nc3c(oc4cc(F)ccc43)c(=O)n2[C@@H]2CCC[C@@H]2C1=O` [Example 3, (3aS,14aR)-10-fluoro-5-methyl-3,3a,5,6-tetrahydro-1H-benzofuro[3′,2′:4,5]pyrimido[1,2-a]cyclopenta[f][1,4]diazepine-4,13(2H,14aH)-dione], the minimal effective concentration in assay [1] was found to be 0.03 µM. Also, the change in vivo at 1 mg/kg in assay [2] was determined as 53.7%.
As for `Cc1cc(C)c2c(n1)oc1c(=O)n3c(nc12)CN(C)C(=O)[C@H]1CCC[C@H]13` [Example 4, (3aS,14aR)-5,8,10-trimethyl-3,3a,5,6-tetrahydro-1H-cyclopenta[f]pyrido[3″,2″:4′,5′]furo[3′,2′:4,5]pyrimido[1,2-a][1,4]diazepine-4,13(2H,14aH)-dione], the minimal effective concentration in assay [1] amounted to 0.1 µM. Moreover, the change in vivo at 1 mg/kg in assay [2] amounted to 51.5%.
The like results for `CN1Cc2nc3c(oc4cc(F)ccc43)c(=O)n2[C@@H]2CCC[C@H]2C1=O` [Example 5, (3aR,14aR)-10-fluoro-5-methyl-3,3a,5,6-tetrahydro-1H-benzofuro[3′,2′:4,5]pyrimido[1,2-a]cyclopenta[f][1,4]diazepine-4,13(2H,14aH)-dione] were, in that order, 0.03 µM and 54.1%.
On to `CN1Cc2nc3c(oc4cc(C(F)(F)F)ccc43)c(=O)n2[C@@H]2CCC[C@H]2C1=O` [Example 6], for which, in assay [1], the minimal effective concentration is 0.03 µM. Further, in assay [2] (0.3 mg/kg orally), the change in vivo at 0.3 mg/kg is 67.7%.
For `CN1Cc2nc3sc4c(c3c(=O)n2[C@@H]2CCC[C@@H]2C1=O)CCN(CC(F)F)C4` [Example 7, (3aS,14aR)-10-(2,2-difluoroethyl)-5-methyl-2,3,3a,5,6,9,10,11,12,14a-decahydro-1H-cyclopenta[f]pyrido[4″,3″:4′,5′]thieno[2′,3′:4,5]pyrimido[1,2-a][1,4]diazepine-4,13-dione], in assay [1], the minimal effective concentration was found to be 0.3 µM. For the same compound, in assay [2], the change in vivo at 3 mg/kg amounted to 76.6%.
Consider `COCCN1CCc2c(sc3nc4n(c(=O)c23)[C@@H]2CCC[C@@H]2C(=O)N(C)C4)C1` [Example 8], for which the minimal effective concentration in assay [1] is 0.03 µM. The change in vivo at 3 mg/kg in assay [2] is 71.8%.
As for `CN1Cc2nc3c(oc4cc(C(F)F)ccc43)c(=O)n2[C@@H]2CCC[C@@H]2C1=O` [Example 9], the minimal effective concentration in assay [1] stood at 0.03 µM. Further, the change in vivo at 3 mg/kg in assay [2] turned out to be 112%.
With `CN1CCc2c(sc3nc4n(c(=O)c23)C(C)(C)CC(=O)N2C[C@H](F)C[C@H]42)C1` [Example 10, (2R,15bR)-2-fluoro-7,7,12-trimethyl-1,2,3,6,7,10,11,12,13,15b-decahydro-5H,9H-pyrido[4″,3″:4′,5′]thieno[2′3′:4,5]pyrimido[1,2-a]pyrrolo[2,1-c][1,4]diazepine-5,9-dione], the minimal effective concentration in assay [1] turned out to be 0.03 µM. For the same compound, the change in vivo at 1 mg/kg in assay [2] was 50.6%.
For the compound `CN1CCc2c(sc3nc4n(c(=O)c23)[C@H]2COC[C@H]2C(=O)N(C)C4)C1` [Example 11, (+)-(3a,14a-cis)-5,10-dimethyl-1,3,3a,5,6,9,10,11,12,14a-decahydrofuro[3,4-f]pyrido[4″,3″:4′,5′]thieno[2′,3′:4,5]pyrimido[1,2-a][1,4]diazepine-4,13-dione], the minimal effective concentration in assay [1] worked out at 0.03 µM. Moreover, the change in vivo at 1 mg/kg in assay [2] was 54.7%.
`CN1Cc2nc3c(oc4cc(C(F)(F)F)ccc43)c(=O)n2[C@H]2CCC[C@@H]2C1=O` [Example 12, (3aS,14aS)-5-methyl-10-(trifluoromethyl)-2,3,3a,5,6,14a-hexahydro-1H-benzofuro[3′,2′:4,5]pyrimido[1,2-a]cyclopenta[f][1,4]diazepine-4,13-dione]: in assay [1], the minimal effective concentration is 0.03 µM. In addition, the change in vivo at 1 mg/kg in assay [2] came to 44.7%.
